In US20100113613A1, “CYCLOHEXANE POLYALCOHOL FORMULATION FOR TREATMENT OF DISORDERS OF PROTEIN AGGREGATION” (WARATAH PHARMACEUTICALS, priority 2006, published 2010):
Marks after values point to notes of the source that are not given here.

Experiments:
plaque burden [1] = assay: TgCRND8 mice therapeutic dosing (5-6 months): plaque burden; assay type: in vivo; conditions: TgCRND8 mice dosed 5-6 months age, 28 days, 10 mg/ml in drinking water
[2] = Orally administered tritiated-inositol uptake in plasma and brain (FIG. 16); assay type: in vivo
Procedure: FIG. 16. Bioavailability of scyllo- (solid line) and myo-inositol (dashed line) in plasma and brain, determined using orally administered tritiated-inositol uptake studies. […] Brain levels also rose rapidly and were maximal at 8 h and 32 h, respectively.

TgCRND8 mice [3] = tested on: TgCRND8 mice
TgCRND8 mice [4] = assay: TgCRND8 mice therapeutic dosing (5-6 months): synaptic density; assay type: in vivo; conditions: therapeutic dosing regimen 5-6 months, p<0.001
Aβ plaque burden = assay: TgCRND8 mice 2 month ad libitum treatment from 5 months: Aβ plaque burden; assay type: in vivo; conditions: 2 months ad libitum from 5 months
[5] = Brain and CSF levels of inositols after one month ad libitum dosing (GC/MS), Example 2; assay type: in vivo, TgCRND8 mice; conditions: mouse, in vivo
Procedure: Study drugs were administered either at 30 mg/kg by oral gavage, or ad libitum by dissolution in drinking water. For administration in drinking water, study drugs were dissolved at 10 mg/ml. The average amount of water taken from the bottle was 3 ml daily per animal. The average mouse weight was 33 g. […] Quantification of scyllo-cyclohexanehexyl and myo-inositol. Scyllo-cyclohexanehexyl and myo-cyclohexanehexyl levels in the brain and CSF were analyzed using gas chromatography/mass spectrometry. D-chiro-inositol was used as an internal control, as it is not present in these biological samples. Derivatization: To increase the volatility and thermal stability of these compounds and to allow for proper peak separation, these samples need to first be derivatized. The derivatization was adapted from a method presented previously (Shetty, H U, et al, 1995, Anal. Biochem. 224:279-85), where the hydroxyl groups of the cyclohexanehexyl were replaced with acetyl groups. […] Similarly, a 5-15 μl sample of CSF was mixed with 1 ml of methanol and allowed to stand at room temperature for 5 minutes. The resulting suspension was centrifuged (5 min, 5000×g) and the supernatant transferred to a glass tube (Teflon-lined cap). […] These samples were then evaporated to complete dryness (Speedvac; 60° C.). […] This mixture was flushed with dry nitrogen, securely capped and the tubes heated (80° C.; 30 min). Following derivatization, samples were cooled (RT) and the unreacted acetylating reagent evaporated using a steady stream of nitrogen gas. The derivatized products were re-dissolved (4 ml; hexane-ethyl acetate (80:20, v/v)) and washed with 1 ml of 5% sodium hydrogencarbonate solution. […] The residue was reconstituted in 100 μl; ethyl acetate. 1 μL of this was injected into the GC/MS system. A similar procedure was followed using stock concentrations of scyllo- and myo-cyclohexanehexols, which were then used to generate concentration curves (in this case the internal standard was derivatized separately and then added). GC/MS was performed using a Perkin Elmer TurboMass Autosystem XL, with a quadrupole mass spectrometer and electron ionization. Gas chromatography was performed using a 30 m×0.25 mm×0.25 μm ZB 5 (5% diphenyl/95% dimethylpolysiloxane) column, using the carrier gas Helium (1 ml/min). Samples were injected with the split set to 50 at 1 min and 0 at 5 min, the injector temperature was set at 300° C. and an initial oven temperature of 80° C. After a hold of 1 min, the temperature was ramped at 45° C./min to 187° C. and held there for 15 min. […] Sample peaks were analyzed using selected-ion monitoring, using m/z 168 for determining cyclohexanehexyl levels in the brain and CSF and m/z 373 for determining cyclohexanehexyl levels in plasma, as monitoring the larger ion reduced noise. […]

[6] = tested on: naturally-expressed oligomers of Aβ; assay: In vitro effect on naturally-expressed Aβ oligomers; conditions: naturally-expressed oligomers at 1-2 nM; 5 μM = 0.9 μg/mL
[7] = tested on: rats infused intracerebroventricularly; assay: Cognitive dysfunction in rats infused intracerebroventricularly with Aβ oligomers; assay type: in vivo, rat; conditions: rats infused icv with oligomers
Procedure: More complex systems provide support for 5 μM (0.9 μg/mL) as an effective local concentration of the scyllo-cyclohexanehexyl. […] The effectiveness of this concentration was confirmed in acute cognitive dysfunction study in rats. In the clinic, effective local concentrations of a scyllo-cyclohexanehexyl will need to be achieved following oral dosing. Three studies have examined the effective dose range of a scyllo-cyclohexanehexyl following oral dosing. […] In rats infused intracerebroventricularly (icy) with All oligomers, approximately 30 mg/kg/day (the lowest dose administered orally) provided effective alleviation of cognitive dysfunction. Therefore, considering 2 species, different animal ages and different endpoints, a dose level ranging between 3-30 mg/kg/day has consistently shown efficacy.

plaque burden [8] = assay: TgCRND8 effective dose range (0.3-3.3 mg/kg/day, 3 to 4 months): plaque burden; assay type: in vivo; conditions: TgCRND8 mice
Procedure: The highest possible dose level of scyllo-cyclohexanehexyl compound was administered in a CRND8 mouse model. […]8 mice were dosed for 28 days from 3 to 4 months of age, i.e. a time when the disease phenotype would be newly established. This study design was selected to enhance the efficiency of the study (dose earlier) and maximise the information obtained (dose at a time when changes are of sufficient magnitude to detect a treatment effect). […] Cognitive function and plaque burden were assessed. • Improvement of cognitive function: Animals were assessed using the Morris Water Maze at 4 months (FIG. 11). […] This path length was similar to that observed in previous experiments in mice dosed with the compound in drinking water ad libitum. […] Thus a clear dose response was observed.

naturally-expressed oligomers of Aβ, sequence (P05067 672-711 limits assumed): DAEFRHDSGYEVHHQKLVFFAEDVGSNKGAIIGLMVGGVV

| Compound | Mean Plaque Size (plaque burden [1]) | Total Plaque Area (plaque burden [1]) | time of maximal brain levels [2] [h] | time of peak plasma levels post administration [2] [h] | twice-daily oral gavage vs one daily dose at equivalent doses, reversing cognitive deficits (TgCRND8 mice [3]; TgCRND8 mice, dose finding studies) | adverse effects in the mice (TgCRND8 mice [3]; mouse, in vivo) | synaptic density (TgCRND8 mice [4]) | growth of plaques by size distribution (Aβ plaque burden) | percent brain area covered in plaques (Aβ plaque burden; P=0.0001) | increase of scyllo-cyclohexanehexyl level in CSF vs untreated [5] [fold] | increase of scyllo-cyclohexanehexyl level in brain vs untreated [5] [fold] | concentration showing greater consistency of effect [6] [µM] | dose providing effective alleviation of cognitive dysfunction (lowest dose administered orally) [7] | plaque parameters (plaque count and brain plaque area) (plaque burden [8]; 0.3 mg/kg/day, 28 days from 3 to 4 months) | plaque parameters (plaque count and brain plaque area) (plaque burden [8]; 1 mg/kg/day, plaque count p=0.02, plaque area p=0.011) | plaque parameters (plaque count and brain plaque area) (plaque burden [8]; 3.3 mg/kg/day, plaque count p<0.0001, plaque area p<0.001) |
| --- | --- | --- | --- | --- | --- | --- | --- | --- | --- | --- | --- | --- | --- | --- | --- | --- |
| OC1C(O)C(O)C(O)C(O)C1O (stereo not shown) [AZD-103, scyllo-inositol] | 336 ± 6* μm^2 | 420027 ± 14986* μm^2 | 32 | 12 | more effective than one daily dose | no evidence of adverse effects | increased synaptic density | effective at inhibiting the growth of plaques of all sizes | significantly reduced | – | – | – | – | – | – | – |
| scyllo-inositol [AZD-103] | – | – | – | – | – | – | – | – | – | 10 | 7 | 5 | approximately 30 mg/kg/day | indistinguishable from untreated controls | significantly reduced | greatest reduction in plaque burden |
